For this test, the system named is membrane potential of mitochondria. The note with it: in the presence of molecular hydrogen.

Turning to `[HH]` [hydrogen], the “signal of TMRE (membrane potential) reduced” value is on record as “about 10%”.

These data come from US20210187012A1, “ANTI-COAGULANT AGENT, ANTICOAGULATION DEVICE, BLOOD COAGULATION CURING METHOD, VASCULAR ENDOTHELIAL CELL FUNCTION IMPROVING METHOD, AND METABOLISM IMPROVING METHOD” (H2BANK CO., LTD., priority 2018, published 2021).
